Reference: patent US20250281572A1, “COMPOSITIONS AND METHODS FOR TREATING AND PREVENTING METABOLIC DISORDERS” (The Johns Hopkins University, priority 2022, published 2025)
No end group written: not given here.

Columns and labels:
[1] = tested on: AMPKα1; test: AMPK phosphorylation in cAMP-treated Hepa1-6 cells; format: cell-based; conditions: Hepa1-6 cells with cAMP (0.2 mM)
[2] = target: AMPKα1 (AMP-activated protein kinase catalytic subunit alpha 1), FLAG-tagged, wild type (UniProt Q13131)
Target sequence in this assay (Q13131 whole entry, looked up, tested part not stated): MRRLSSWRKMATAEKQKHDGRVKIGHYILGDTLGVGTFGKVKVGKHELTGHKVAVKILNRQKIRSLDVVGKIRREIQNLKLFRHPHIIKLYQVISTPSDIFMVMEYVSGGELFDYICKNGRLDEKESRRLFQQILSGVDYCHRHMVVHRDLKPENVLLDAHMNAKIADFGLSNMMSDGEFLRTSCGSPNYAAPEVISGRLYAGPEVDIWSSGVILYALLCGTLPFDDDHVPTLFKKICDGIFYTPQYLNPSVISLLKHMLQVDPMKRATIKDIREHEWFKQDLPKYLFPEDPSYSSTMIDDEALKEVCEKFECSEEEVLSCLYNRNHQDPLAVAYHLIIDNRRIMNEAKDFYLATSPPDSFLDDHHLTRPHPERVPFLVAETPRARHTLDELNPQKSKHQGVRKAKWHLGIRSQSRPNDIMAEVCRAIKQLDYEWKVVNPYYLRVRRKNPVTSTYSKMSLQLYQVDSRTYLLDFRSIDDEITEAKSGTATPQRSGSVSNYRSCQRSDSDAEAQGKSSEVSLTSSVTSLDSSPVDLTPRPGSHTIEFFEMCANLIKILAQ

[3] = tested on: T1, peptide a1m (TPQRSGSISNYRSCQR)
T1 sequence: TPQRSGSISNYRSCQR

[4] = target: AMPKα1 (AMP-activated protein kinase catalytic subunit alpha 1), FLAG-tagged, wild type (UniProt Q13131); test: cell-based or functional assay
Target sequence in this assay (Q13131 whole entry): as the sequence (Q13131 whole entry, looked up, tested part not stated) above

[5] = target: AMPKα1 phosphorylated at S496 (UniProt Q13131)
Chain of AMPKα1 phosphorylated at S496 (Q13131 whole entry, looked up): as the sequence (Q13131 whole entry, looked up, tested part not stated) above

[6] = target: AMPKα2 phosphorylated at S491 (UniProt P54646)
Chain of AMPKα2 phosphorylated at S491 (P54646 whole entry, looked up): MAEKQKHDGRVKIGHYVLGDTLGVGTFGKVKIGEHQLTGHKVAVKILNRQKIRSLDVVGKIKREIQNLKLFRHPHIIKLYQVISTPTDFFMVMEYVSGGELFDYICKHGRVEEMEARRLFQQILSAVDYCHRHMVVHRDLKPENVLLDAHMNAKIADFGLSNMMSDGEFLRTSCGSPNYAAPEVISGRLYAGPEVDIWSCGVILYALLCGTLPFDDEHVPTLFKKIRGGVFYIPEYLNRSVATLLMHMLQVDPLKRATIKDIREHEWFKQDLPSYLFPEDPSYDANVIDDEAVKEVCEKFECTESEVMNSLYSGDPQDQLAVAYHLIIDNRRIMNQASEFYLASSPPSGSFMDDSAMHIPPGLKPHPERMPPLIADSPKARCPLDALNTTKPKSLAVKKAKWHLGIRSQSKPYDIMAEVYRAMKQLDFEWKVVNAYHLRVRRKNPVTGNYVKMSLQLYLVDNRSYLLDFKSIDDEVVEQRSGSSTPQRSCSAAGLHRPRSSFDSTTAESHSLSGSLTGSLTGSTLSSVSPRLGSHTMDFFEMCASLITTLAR

[7] = target: AMPKα2 (AMP-activated protein kinase catalytic subunit alpha 2) (UniProt P54646)
Chain of AMPKα2 (AMP-activated protein kinase catalytic subunit alpha 2) (P54646 whole entry, looked up, tested part not stated): as the sequence (P54646 whole entry, looked up) above

[8] = tested on: AMPKα1; test: In vitro phosphorylation assay of AMPKα1 at S496 by PKA or AKT; format: biochemical; conditions: in vitro assays
Protocol: (§1) In vitro phosphorylation assays. Purified AMPKα1 protein was incubated with 1 μg of PKA catalytic subunit (Millipore) or 0.54 ug of AKT1 (abcam), 1× kinase buffer (Cell signaling) and 0.2 mM ATP at room temperature for the indicated time. To test the phosphorylation of PKA-mediated AMPK phosphorylation at S496/491 on a subunit phosphorylation at T172, AMPKα subunits were phosphorylated at S496/491 by PKA at 37° C. for 1 h, followed by the addition of 25 ng LKB1-STRAD-MO25 (Millipore), then incubated at room temperature for 30 min.

[9] = tested on: AMPKα2; test: In vitro phosphorylation assay of AMPKα2 at S491 by PKA; format: biochemical
Protocol: as §1

[10] = Viable MCF-7 breast cancer cells; format: cell-based; conditions: 500 μM; read-out: reduction of viable MCF-7 cancer cells
[11] = tested on: human colon cancer Caco2 cells; test: Growth of colon cancer Caco2 cells; format: cell-based; conditions: FIG. 25b
[12] = tested on: primary hepatocytes; conditions: 10 μM, 16 h, versus control peptide TAT
Protocol: Primary hepatocytes prepared from elderly mice (78 weeks of age) were treated with 10 μM of control peptide TAT or Pa496m for 16 h.

[13] = tested on: HFD-fed mice; test: Intraperitoneal treatment of HFD-fed mice; format: in vivo, mouse; conditions: intraperitoneal 10 nMole/g/day for 5 days, then 15 nMole/g/day for another 5 days
[14] = tested on: human primary hepatocytes

Chain of AMPKβ1, FLAG-tagged (Q9R078 2-270): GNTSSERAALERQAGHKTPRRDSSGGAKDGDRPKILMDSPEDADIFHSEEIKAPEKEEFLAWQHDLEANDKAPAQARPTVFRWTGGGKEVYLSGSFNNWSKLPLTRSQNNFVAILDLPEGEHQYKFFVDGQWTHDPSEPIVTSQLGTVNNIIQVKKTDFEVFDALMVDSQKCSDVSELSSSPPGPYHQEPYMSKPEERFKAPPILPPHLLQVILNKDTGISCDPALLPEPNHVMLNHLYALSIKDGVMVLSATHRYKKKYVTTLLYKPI
Chain of AMPKγ1, FLAG-tagged (O54950 whole entry): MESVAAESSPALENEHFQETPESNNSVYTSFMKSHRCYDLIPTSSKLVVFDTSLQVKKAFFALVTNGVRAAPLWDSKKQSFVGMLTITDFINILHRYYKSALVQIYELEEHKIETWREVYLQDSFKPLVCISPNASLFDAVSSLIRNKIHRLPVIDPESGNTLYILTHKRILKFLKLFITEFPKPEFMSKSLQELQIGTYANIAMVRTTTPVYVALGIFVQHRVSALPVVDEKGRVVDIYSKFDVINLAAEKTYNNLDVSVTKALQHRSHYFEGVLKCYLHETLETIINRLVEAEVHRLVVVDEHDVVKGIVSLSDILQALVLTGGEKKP

O=S(=O)(NCCNC/C=C/c1ccc(Br)cc1)c1cccc2cnccc12 [Peptide H89]
phosphorylation of AMPKαT172 and MFF [1]: reversed the negative effect of cAMP

AKT1 (abcam)
in vitro phosphorylation of AMPKα1 at S496 [2]: PKA- or AKT-mediated phosphorylation of AMPKα1 at S496 in in vitro assays | in vitro phosphorylation of AMPKα1 at S496 by AKT [3]: this peptide could effectively antagonize PKA- or AKT-mediated phosphorylation of AMPKα1 at S496 in in vitro assays

AMPKβ1, FLAG-tagged
AMPK enzymatic activity (% of enzymatic activity lost) [4]: 80

AMPKγ1, FLAG-tagged
AMPK enzymatic activity (% of enzymatic activity lost) [4]: 80

LKB1-STRAD-MO25 (Millipore)
in vitro phosphorylation of AMPKα at T172 [5]: the phosphorylation at these sites decreased the phosphorylation of AMPKα at T172 by upstream kinase LKB1 | in vitro phosphorylation of AMPKα at T172 [6]: the phosphorylation at these sites decreased the phosphorylation of AMPKα at T172 by upstream kinase LKB1

PKA catalytic subunit (Millipore)
in vitro phosphorylation of AMPKα1 at S496 [2]: PKA can directly phosphorylate AMPKα1 at S496 | in vitro phosphorylation of AMPKα2 at S491 [7]: PKA can directly phosphorylate AMPKα1 at S496 (FIGS. 3a, b) and AMPKα2 at S491 (FIG. 3c) | in vitro phosphorylation of AMPKα1 at S496 by PKA [3]: this peptide could effectively antagonize PKA- or AKT-mediated phosphorylation of AMPKα1 at S496 in in vitro assays | in vitro phosphorylation of AMPKα2 at S491 by PKA [3]: this targeting-peptide a1m could antagonize the phosphorylation of AMPKα2 at S491 by PKA as well

TPQRSGSISNYRSCQR [a1m, corresponds to mouse AMPKα1 from 490-505 a.a]
PKA- or AKT-mediated phosphorylation of AMPKα1 at S496 [8]: effectively antagonize | phosphorylation of AMPKα2 at S491 by PKA [9]: could antagonize

YGRKKRRQRRRTPQRSCSAAGLHR [Pa2-491]
cytotoxicity [10]: > 90% | growth of colon carcinoma Caco2 cells [11]: could inhibit

YGRKKRRQRRRTPQRSGSISNYRSCQR [Pa496m]
cytotoxicity [10]: > 90% | fat content in hepatocytes [12]: significantly decreased

YGRKKRRQRRRTPQRSGSVSNYRSCQR [Pa496h]
injury to the liver [13]: without causing injury to the liver | cytotoxicity [10]: > 90% | growth of colon carcinoma Caco2 cells [11]: could inhibit | decrease of hepatocytes' viability [14]: 19.8% | viability of human primary hepatocytes ([14]; 100 μM): did not significantly affected
